Results: US20240343747A1, “Heteroaryl compounds as inhibitors of TYK2, composition and application thereof” (Accro Bioscience (HK) Limited, priority 2021, published 2024)

Assays:
[1] = target: TYK2 (Mus musculus (Mouse), UniProt Q9R117); test: Luciferase assay in L929 ISRE cells stimulated with IFN-α; format: cell-based; conditions: IFN-α 100 ng/mL; for inhibition at 0.01 µM: 10 nM, read-out: Inhibitory activity % (10 nM); for inhibition at 0.1 µM: 100 nM, read-out: Inhibitory activity % (100 nM); for inhibition at 1 µM: 1000 nM, read-out: Inhibitory activity % (1000 nM); for inhibition at 0.05 µM: 50 nM, read-out: Inhibitory activity % (50 nM); for inhibition at 0.2 µM: 200 nM, read-out: Inhibitory activity % (200 nM)
Sequence of TYK2 (Q9R117 whole entry): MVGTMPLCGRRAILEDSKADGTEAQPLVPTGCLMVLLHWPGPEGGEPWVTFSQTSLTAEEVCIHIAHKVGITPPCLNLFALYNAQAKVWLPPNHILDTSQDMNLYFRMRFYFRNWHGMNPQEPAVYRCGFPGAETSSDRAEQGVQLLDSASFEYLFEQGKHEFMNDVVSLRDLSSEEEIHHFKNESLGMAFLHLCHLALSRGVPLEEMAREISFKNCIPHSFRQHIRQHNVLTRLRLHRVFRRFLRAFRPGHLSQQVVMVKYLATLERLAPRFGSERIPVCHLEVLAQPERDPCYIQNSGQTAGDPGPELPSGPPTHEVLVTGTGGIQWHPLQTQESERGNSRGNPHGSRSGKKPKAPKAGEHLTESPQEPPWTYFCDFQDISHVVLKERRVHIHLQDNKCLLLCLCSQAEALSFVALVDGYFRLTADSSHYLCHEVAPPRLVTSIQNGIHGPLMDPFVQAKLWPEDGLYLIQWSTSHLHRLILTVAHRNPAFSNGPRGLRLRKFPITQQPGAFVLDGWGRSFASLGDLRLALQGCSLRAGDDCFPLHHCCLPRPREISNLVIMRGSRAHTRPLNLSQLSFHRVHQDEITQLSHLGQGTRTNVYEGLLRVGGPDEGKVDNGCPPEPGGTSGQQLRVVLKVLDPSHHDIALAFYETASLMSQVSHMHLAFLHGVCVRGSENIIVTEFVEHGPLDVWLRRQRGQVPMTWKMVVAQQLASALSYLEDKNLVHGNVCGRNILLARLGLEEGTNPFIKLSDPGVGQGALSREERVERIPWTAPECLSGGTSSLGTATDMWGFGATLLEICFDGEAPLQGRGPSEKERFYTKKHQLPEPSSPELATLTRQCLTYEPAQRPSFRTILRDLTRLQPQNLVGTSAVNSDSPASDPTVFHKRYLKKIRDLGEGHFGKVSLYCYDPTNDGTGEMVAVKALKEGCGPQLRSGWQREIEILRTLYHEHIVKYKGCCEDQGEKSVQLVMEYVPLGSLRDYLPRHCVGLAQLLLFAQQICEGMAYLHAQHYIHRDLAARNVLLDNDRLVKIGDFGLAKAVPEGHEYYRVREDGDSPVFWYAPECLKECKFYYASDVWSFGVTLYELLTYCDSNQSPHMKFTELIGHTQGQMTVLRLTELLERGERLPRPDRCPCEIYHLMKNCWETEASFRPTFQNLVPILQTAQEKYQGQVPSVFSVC
Protocol: • 1. L929 ISRE cells (5000 cells/well) were seeded on 96-well plates and incubated overnight at room temperature; • 2. The cells were pretreated by adding different concentrations (10 nM, 50 nM, 100 nM, 200 nM or 1000 nM) of the test compounds for 2 hours; • 3. Added IFN-α (100 ng/mL) to stimulate cells for 6 hours; • 4. Removed the upper medium, add PBS (100 μL) and washed, then removed PBS; • 5. Added PLB lysis solution (50 μL) to each well, shook the well for 15 minutes; • 6. Transferred PLB lysis solution (30 μL) to a new 96-well whiteboard, added LAR II reagent (LAR II), then quickly read the […]; • 7. Added Stop & Glo reagent (30 μL), then read the 450 nm OD value using the plate washer. • 8. The final results in Table 3 were the OD value in step 6/OD value in step 7.

[2] = target: TYK2 JH2 (Homo sapiens (Human), UniProt P29597); test: Competitive binding assay (kinase-tagged phage, qPCR), TYK2 JH2
Sequence of TYK2 JH2 (P29597 589-875): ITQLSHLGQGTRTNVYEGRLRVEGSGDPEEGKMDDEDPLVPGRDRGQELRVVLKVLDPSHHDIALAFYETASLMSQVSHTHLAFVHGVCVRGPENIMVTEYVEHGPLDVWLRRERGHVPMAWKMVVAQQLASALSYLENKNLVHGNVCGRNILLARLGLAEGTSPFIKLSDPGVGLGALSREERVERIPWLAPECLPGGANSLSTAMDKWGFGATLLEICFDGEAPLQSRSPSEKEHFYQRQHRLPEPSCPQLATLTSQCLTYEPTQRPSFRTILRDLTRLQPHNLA
Protocol: For most assays, kinase-tagged T7 phage strains were prepared in an E. coli host derived from the BL21 strain. E. coli were grown to log-phase and infected with T7 phage and incubated with shaking at 32° C. until lysis. The lysates were centrifuged and filtered to remove cell debris. The remaining kinases were produced in HEK-293 cells and subsequently tagged with DNA for qPCR detection. Streptavidin coated magnetic beads were treated with biotinylated small molecule ligands for 30 minutes at room temperature to generate affinity resins for kinase assays. The liganded beads were blocked with excess biotin and washed with blocking buffer (SeaBlock (Pierce), 1% BSA, 0.05% Tween 20, 1 mM DTT) to remove unbound ligand and to reduce non-specific binding. […] Test compounds were prepared as 111X stocks in 100% DMSO. Dissociation constants (Kds) were determined using an 11-point 3-fold compound dilution series with three DMSO control points. All compounds for Kd measurements are distributed by acoustic transfer (non-contact dispensing) in 100% DMSO. The compounds were then diluted directly into the assays such that the final concentration of DMSO was 0.9%. All reactions performed in polypropylene 384-well plate. Each was a final volume of 0.02 ml. The assay plates were incubated at room temperature with shaking for 1 hour and the affinity beads were washed with wash buffer (1×PBS, 0.05% Tween 20). The beads were then re-suspended in elution buffer (1×PBS, 0.05% Tween 20, 0.5 μM nonbiotinylated affinity ligand) and incubated at room temperature with shaking for 30 minutes. The kinase concentration in the eluates was measured by qPCR.
An 11-point 3-fold serial dilution of each test compound was prepared in 100% DMSO at 100× final test concentration and subsequently diluted to 1× in the assay (final DMSO concentration=1%). Most Kds were determined using a compound top concentration=30,000 nM. If the initial Kd determined was <0.5 nM (the lowest concentration tested), the measurement was repeated with a serial dilution starting at a lower top concentration.
Binding constants (Kds) were calculated with a standard dose-response curve using the Hill equation: […]
The Hill Slope was set to −1.
Curves were fitted using a non-linear least square fit with the Levenberg-Marquardt algorithm.

Row | inhibition at 1 µM [1] | Structure (SMILES) | further results
1 | 38% | CCC(=O)c1cnc(NC(=O)C2CC2)cc1Nc1cccc(-c2cc(P(C)(C)=O)cs2)c1OC [Compound B27] | –
2 | 35% | CCC(=O)c1nnc(NC(=O)C2CC2)cc1Nc1cccc(-c2ccc(P(C)(C)=O)cn2)c1OC [Compound B28] | –
3 | 93% | CCC(=O)c1cnc(NC(=O)C2CC2)cc1Nc1nccc(-c2cc(P(=O)(CC)CC)n(C)n2)c1OC [Compound B29] | Kd [2]: 0.01 nM
4 | 75% | CCC(=O)c1cnc(NC(=O)C2CC2)cc1Nc1cccc(-c2cc(P3(=O)CCCC3)n(C)n2)c1OC [Compound B30] | –
5 | 26% | CCC(=O)c1nnc(NC(=O)C2CC2)cc1Nc1cccc(-c2cc(P(C)(C)=O)n(CC)n2)c1OC [Compound B31] | –
6 | 88% | CCC(=O)c1cnc(NC(=O)C2CC2)cc1Nc1cc(F)cc(-c2cc(P(=O)(CC)CC)n(C)n2)c1OC [Compound B32] | Kd [2]: 0.025 nM
7 | 86% | [2H]C([2H])([2H])n1nc(-c2ccnc(Nc3cc(NC(=O)C4CC4)ncc3C(=O)CC)c2OC)cc1P(=O)(CC)CC [Compound B33] | Kd [2]: 0.056 nM
8 | 87% | [2H]C([2H])([2H])n1nc(-c2cccc(Nc3cc(NC(=O)C4CC4)ncc3C(=O)CC)c2OC)cc1P(=O)(CC)CC [Compound B34] | Kd [2]: 0.044 nM
9 | 60% | [2H]C([2H])([2H])n1nc(-c2ccnc(Nc3cc(NC(=O)C4CC4)ncc3C(=O)CC)c2OC)cc1P(C)(C)=O [Compound B35] | Kd [2]: 0.025 nM
10 | 75% | CCC(=O)c1cnc(NC(=O)C2CC2)cc1Nc1nccc(-c2ncc(P(=O)(CC)CC)cn2)c1OC [Compound B36] | –
11 | 80% | CNC(=O)c1nnc(NC(=O)C2CC2)cc1Nc1cccc(-c2cc(P(C)(C)=O)n(C)n2)c1OC [Compound B39] | Kd [2]: 0.0064 nM; inhibition at 0.1 µM [1]: 34%
12 | 58% | CNC(=O)c1nnc(NC(=O)C2CC2)cc1Nc1cccc(-c2ncc(P(C)(C)=O)cn2)c1OC [Compound B40] | inhibition at 0.1 µM [1]: 33%
13 | 65% | [2H]C([2H])([2H])NC(=O)c1nnc(NC(=O)C2CC2)cc1Nc1cccc(-c2cc(P(C)(C)=O)n(C)n2)c1OC [Compound B42] | –
14 | 84% | CCP(=O)(CC)c1cc(-c2cccc(Nc3cc(NC(=O)C4CC4)nnc3C(=O)NC)c2OC)nn1C [Compound B43] | –
15 | 81% | CNC(=O)c1nnc(NC(=O)C2CC2)cc1Nc1cccc(-c2cc(P(=O)(C3CC3)C3CC3)n(C)n2)c1OC [Compound B44] | –
16 | 95% | [2H]C([2H])([2H])NC(=O)c1nnc(NC(=O)C2CC2)cc1Nc1cccc(-c2cc(P(=O)(CC)CC)n(C)n2)c1OC [Compound B45] | inhibition at 0.05 µM [1]: 44%; inhibition at 0.2 µM [1]: 83%
17 | 96% | CCC(=O)c1cnc(NC(=O)C2CC2)cc1Nc1ncnc(-c2cc(P(=O)(C3CC3)C3CC3)n(C)n2)c1OC [Compound B46, N-(4-((6-(5-(dicyclopropylphosphoryl)-1-methyl-1H-pyrazol-3-yl)-5-methoxypyrimidin-4-yl)amino)-5-propionylpyridin-2-yl)cyclopropanecarboxamide] | inhibition at 0.05 µM [1]: 70%; inhibition at 0.2 µM [1]: 88%

Continued, compound first:

Row | Structure (SMILES) | inhibition at 1 µM [1] | further results
18 | CCC(=O)c1cnc(NC(=O)C2CC2)cc1Nc1cccc(-c2nc(P(C)(C)=O)ns2)c1OC [Compound B1, N-(4-((3-(3-(dimethylphosphoryl)-1,2,4-thiadiazol-5-yl)-2-methoxyphenyl)amino)-5-propionylpyridin-2-yl)cyclopropanecarboxamide] | 0% | inhibition at 0.01 µM [1]: 0%; inhibition at 0.1 µM [1]: 0%
19 | CCC(=O)c1cnc(NC(=O)C2CC2)cc1Nc1cccc(-c2nc(P(C)(C)=O)cs2)c1OC [Compound B6] | 36% | –
20 | CCC(=O)c1cnc(NC(=O)C2CC2)cc1Nc1cccc(-c2cccc(P(C)(C)=O)c2)c1OC [Compound B7] | 46% | –
21 | CCC(=O)c1cnc(NC(=O)C2CC2)cc1Nc1cccc(-c2ccc(P(C)(C)=O)nn2)c1OC [Compound B8] | 33% | –
22 | CCC(=O)c1cnc(NC(=O)C2CC2)cc1Nc1cccc(-c2cc(P(C)(C)=O)nn2C)c1OC [Compound B9] | 40% | –
23 | CCC(=O)c1cnc(NC(=O)C2CC2)cc1Nc1cccc(-c2ccccc2P(C)(C)=O)c1OC [Compound B10] | 50% | –
24 | CCC(=O)c1cnc(NC(=O)C2CC2)cc1Nc1cccc(-c2cc(P(C)(C)=O)n(C)n2)c1F [Compound B12] | 0% | –
25 | CCC(=O)c1cnc(NC(=O)C2CC2)cc1Nc1cccc(-c2cc(P(C)(C)=O)n(C)n2)c1C [Compound B14] | 27% | –
26 | CCC(=O)c1cnc(NC(=O)C2CC2)cc1Nc1cccc(-c2cc(P(C)(C)=O)n(C)n2)c1 [Compound B15] | 45% | –
27 | CCC(=O)c1cnc(NC(=O)C2CC2)cc1Nc1cccc(-c2cc(P(C)(C)=O)n(C3CC3)n2)c1OC [Compound B16] | 55% | inhibition at 0.01 µM [1]: 35%; inhibition at 0.1 µM [1]: 38%
28 | CCC(=O)c1cnc(NC(=O)C2CC2)cc1Nc1cc(F)cc(-c2cc(P(C)(C)=O)n(C)n2)c1OC [Compound B17] | 67% | inhibition at 0.01 µM [1]: 25%; inhibition at 0.1 µM [1]: 45%
29 | CCC(=O)c1nnc(NC(=O)C2CC2)cc1Nc1cccc(-c2cc(P(C)(C)=O)n(C)n2)c1OC [Compound B18, N-(5-((3-(5-(dimethylphosphoryl)-1-methyl-1H-pyrazol-3-yl)-2-methoxyphenyl)amino)-6-propionylpyridazin-3-yl)cyclopropanecarboxamide] | 42% | –
30 | CCC(=O)c1cnc(NC(=O)C2CC2)cc1Nc1nccc(-c2cc(P(C)(C)=O)n(C)n2)c1OC [Compound B19, N-(4-((4-(5-(dimethylphosphoryl)-1-methyl-1H-pyrazol-3-yl)-3-methoxypyridin-2-yl)amino)-5-propionylpyridin-2-yl)cyclopropanecarboxamide] | 88% | Kd [2]: 0.075 nM; inhibition at 0.01 µM [1]: 41%; inhibition at 0.1 µM [1]: 74%
31 | CCC(=O)c1cnc(NC(=O)C2CC2)cc1Nc1cccc(-c2cc(P(C)(C)=O)n(C)n2)c1C#N [Compound B20] | 20% | inhibition at 0.01 µM [1]: 7%; inhibition at 0.1 µM [1]: 8%
32 | CCC(=O)c1cnc(NC(=O)C2CC2)cc1Nc1cccc(-c2ccc(P(C)(C)=O)nc2)c1OC [Compound B21] | 49% | inhibition at 0.1 µM [1]: 6%
33 | CCC(=O)c1cnc(NC(=O)C2CC2)cc1Nc1cc(F)cc(-c2ncc(P(C)(C)=O)cn2)c1OC [Compound B23] | 46% | inhibition at 0.1 µM [1]: 8%
34 | CCC(=O)c1cnc(NC(=O)C2CC2)cc1Nc1cccc(-c2cc(P(=O)(CC)CC)n(C)n2)c1OC [Compound B24] | 93% | Kd [2]: 0.03 nM; inhibition at 0.1 µM [1]: 31%
35 | CCC(=O)c1nnc(NC(=O)C2CC2)cc1Nc1cc(F)cc(-c2cc(P(C)(C)=O)n(C)n2)c1OC [Compound B25] | 13% | –
